Results taken from ChEMBL document CHEMBL3632583, “Haenamindole, an unusual diketopiperazine derivative from a marine-derived Penicillium sp. KCB12F005” (Bioorg Med Chem Lett, 2015).
pIC50: −log10 of the molar value. Activity calls are given as the source filed them. No cut-off for these calls is given here.

Legend:
[1] = test system: K562; test: Cytotoxicity against human K562 cells after 96 hrs by WST method; type: functional, cell-based; settings: K562, 96 h
[2] = test system: HeLa; test: Cytotoxicity against human HeLa cells after 96 hrs by WST method; type: functional, cell-based
[3] = test system: Escherichia coli; test: Antimicrobial activity against Escherichia coli at 50 ug/disk after 48 hrs by paper disk method; type: functional, organism-based
[4] = Cytotoxicity against human Hep3B cells after 96 hrs by WST method; type: functional, cell-based, Hep 3B2
[5] = test system: Bacillus cereus; test: Antimicrobial activity against Bacillus cereus at 50 ug/disk after 48 hrs by paper disk method; type: functional, organism-based
[6] = test system: Salmonella enteritidis; test: Antimicrobial activity against Salmonella enteritidis at 50 ug/disk after 48 hrs by paper disk method; type: functional, organism-based; settings: Salmonella enterica subsp. enterica serovar Enteritidis
[7] = test system: HL-60; test: Cytotoxicity against human HL60 cells after 96 hrs by WST method; type: functional, cell-based; settings: HL-60, 96 h
[8] = test system: Staphylococcus aureus; test: Antimicrobial activity against Staphylococcus aureus at 50 ug/disk after 48 hrs by paper disk method; type: functional, organism-based

## O=C1N[C@@H](Cc2ccccc2)C(=O)N(O)[C@@H]1C[C@]1(O)c2ccccc2N2C(=O)C[C@@H](c3ccccc3)N[C@H]21
[1]
  pIC50: < 4.07
[2]
  pIC50: < 4.07
[3]
  Activity: inactive
[4]
  pIC50: < 4.07
[5]
  Activity: inactive
[6]
  Activity: inactive
[7]
  pIC50: < 4.07
[8]
  Activity: inactive
